Consider eleven compounds from US9044463B2, “FSH receptor antagonists” (Merck Sharp & Dohme B.V., priority 2011, dated 2015).

As usually defined, the IC50 is the concentration that inhibits the measured activity by half.

The experiment addresses T1, human FSH receptor (Homo sapiens, UniProt P23945).
T1 construct: expressed in transfected cells; host or cells: CHO (Chinese Hamster Ovary) cells, stably transfected; cotransfected with a CRE-luciferase reporter
T1 sequence (P23945 18-695): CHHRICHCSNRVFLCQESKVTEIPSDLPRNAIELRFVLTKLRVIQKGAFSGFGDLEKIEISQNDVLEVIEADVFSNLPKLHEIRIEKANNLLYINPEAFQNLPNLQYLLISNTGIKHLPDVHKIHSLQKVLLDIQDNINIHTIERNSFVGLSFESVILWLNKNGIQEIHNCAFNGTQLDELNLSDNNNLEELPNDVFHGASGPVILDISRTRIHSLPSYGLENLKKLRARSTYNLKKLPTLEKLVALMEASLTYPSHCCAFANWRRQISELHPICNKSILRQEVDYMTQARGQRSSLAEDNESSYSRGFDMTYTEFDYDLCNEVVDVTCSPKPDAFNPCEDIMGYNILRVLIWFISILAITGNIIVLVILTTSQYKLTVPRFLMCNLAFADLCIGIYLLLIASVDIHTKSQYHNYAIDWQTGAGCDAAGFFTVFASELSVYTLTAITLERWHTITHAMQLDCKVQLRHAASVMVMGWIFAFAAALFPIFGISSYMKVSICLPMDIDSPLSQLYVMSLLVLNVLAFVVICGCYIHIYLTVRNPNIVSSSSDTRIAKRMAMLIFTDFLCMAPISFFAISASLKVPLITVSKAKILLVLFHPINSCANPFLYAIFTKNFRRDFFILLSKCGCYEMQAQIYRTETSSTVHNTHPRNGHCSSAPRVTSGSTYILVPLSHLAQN
As to the kind of experiment: Antagonistic activity at the human FSH receptor expressed in CHO cells (CRE-luciferase reporter). The settings on record: CHO cells stably transfected with human FSH receptor and CRE-luciferase; with 49 μM recFSH; 4 hours incubation; read-out: IC50 (inhibition of recFSH-induced luciferase stimulation). It is filed as cell-based. How it is done: Antagonistic Activity of Compounds at the Human FSH Receptor Expressed in CHO Cells
Antagonistic activity of the compounds at the human FSH receptor was determined in Chinese Hamster Ovary (CHO) cells stably transfected with the human FSH receptor and cotransfected to with a cAMP responsive element (CRE)/promoter directing the expression of a firefly luciferase reporter gene. Binding of the compounds to the Gs protein-coupled FSH receptor will result in an increase of cAMP, which in turn will induce an increased transactivation of the luciferase reporter. The cells (7,500 cells/well of a 384 well plate) were incubated in Dulbecco′ minimal essential F12 modified medium (Invitrogen), supplemented with 1 μg/ml bovine insulin, 5 μg/ml human apo-transferrin, 100 U/ml penicillin G and 100 μg/ml streptomycin with the test compounds (concentration between 0.316 nM and 10.0 μM) in duplicate together with […] recFSH (which, at this concentration in the absence of test compound, induces 80% of the maximal luciferase stimulation) in a humidified atmosphere (95%) at 5-7% CO2 and 37° C. The final concentration of DMSO was 1%. After 4 hours of incubation, plates were allowed to adjust to room temperature for 1 hour. Then, SteadyLite (PerkinElmer) solution was added to the wells and cells were allowed to lyse for at least 1 hour at room temperature. Subsequently, luciferase activity was measured in a luminescence counter. The signal is expressed as counts per second (cps). The IC50 (concentration of test compound causing half-maximal (50%) inhibition of the maximally attainable inhibition of the luciferase stimulation by the compound) and efficacy of the compounds were determined using the software program MathIQ (version 2.3, ID Business Solutions Limited).
For orientation: In a reporter assay the amount or activity of a reporter protein is the signal.

For the compound `COc1cc2c(cc1OC)-c1cc(C(=O)N[C@@H](CO)Cc3c[nH]c4ccccc34)c(OC(C)C#N)cc1CC2` (stereo partly drawn) [Example 12, 2-(1-cyanoethoxy)-N—((R)-1-hydroxy-3-(1H-indol-3-yl)propan-2-yl)-6,7-dimethoxy-9,10-dihydrophenanthrene-3-carboxamide], the IC50 is 0.1 to 1 µM.

For `C=CCOc1cc2c(cc1C(=O)N[C@@H](CO)Cc1c[nH]c3ccccc13)-c1cc(OC)c(OC)cc1CC2` [Example 13, (R)-2-(allyloxy)-N-(1-hydroxy-3-(1H-indol-3-yl)propan-2-yl)-6,7-dimethoxy-9,10-dihydrophenanthrene-3-carboxamide], the IC50 lay within 0.1 to 1 µM.

`COc1cc2c(cc1OC)-c1cc(C(=O)N[C@@H](CO)Cc3c[nH]c4ccccc34)c(OC(F)C(N)=O)cc1CC2` (stereo partly drawn) [Example 14, 2-(2-amino-1-fluoro-2-oxoethoxy)-N—((R)-1-hydroxy-3-(1H-indol-3-yl)propan-2-yl)-6,7-dimethoxy-9,10-dihydrophenanthrene-3-carboxamide]: the IC50 lay in the range of 0.1 to 1 µM.

Regarding `COCCOc1cc2c(cc1C(=O)N[C@@H](CO)Cc1c[nH]c3ccccc13)-c1cc(OC)c(OC)cc1CC2` [Example 15, (R)—N-(1-hydroxy-3-(1H-indol-3-yl)propan-2-yl)-6,7-dimethoxy-2-(2-methoxyethoxy)-9,10-dihydrophenanthrene-3-carboxamide], the concentration for half-maximal inhibition (IC50) is 0.1 to 1 µM.

In the case of `COc1cc2c(cc1OC)-c1cc(C(=O)N[C@@H](CO)Cc3c[nH]c4ccccc34)c(-c3ccccc3F)cc1CC2` [Example 18, 2-(2-fluorophenyl)-N—((R)-1-hydroxy-3-(1H-indol-3-yl)propan-2-yl)-6,7-dimethoxy-9,10-dihydrophenanthrene-3-carboxamide], the IC50 is less than 0.1 µM.

For the compound `COc1cc2c(cc1OC)-c1cc(C(=O)N[C@@H](CO)Cc3c[nH]c4ccccc34)c(-c3c(F)cc(O)cc3F)cc1CC2` [Example 19, (R)-2-(2,6-difluoro-4-hydroxyphenyl)-N-(1-hydroxy-3-(1H-indol-3-yl)propan-2-yl)-6,7-dimethoxy-9,10-dihydrophenanthrene-3-carboxamide], the IC50 is less than 0.1 µM.

Regarding `COc1cc2c(cc1OC)-c1cc(C(=O)N[C@@H](CO)Cc3c[nH]c4ccccc34)c(-c3ccc(N)cc3F)cc1CC2` [Example 20, 2-(4-amino-2-fluorophenyl)-N—((R)-1-hydroxy-3-(1H-indol-3-yl)propan-2-yl)-6,7-dimethoxy-9,10-dihydrophenanthrene-3-carboxamide], the concentration for half-maximal inhibition (IC50) is less than 0.1 µM.

Consider `COc1cc2c(cc1OC)-c1cc(C(=O)N[C@@H](CO)Cc3c[nH]c4ccccc34)c(-c3ccncc3F)cc1CC2` [Example 21, 2-(3-fluoropyridin-4-yl)-N—((R)-1-hydroxy-3-(1H-indol-3-yl)propan-2-yl)-6,7-dimethoxy-9,10-dihydrophenanthrene-3-carboxamide], for which the IC50 is less than 0.1 µM.

For the compound `COc1cc2c(cc1OC)-c1cc(C(=O)N[C@@H](CO)Cc3c[nH]c4ccccc34)c(C(C)=C(C)C)cc1CC2` [Example 22, (R)—N-(1-hydroxy-3-(1H-indol-3-yl)propan-2-yl)-6,7-dimethoxy-2-(3-methylbut-2-en-2-yl)-9,10-dihydrophenanthrene-3-carboxamide], the IC50 was less than 0.1 µM.

For the compound `COc1cc2c(cc1OC)-c1cc(C(=O)N[C@@H](CO)Cc3c[nH]c4ccccc34)c(-c3ccc(Cl)s3)cc1CC2` [Example 23, (R)-2-(5-chlorothiophen-2-yl)-N-(1-hydroxy-3-(1H-indol-3-yl)propan-2-yl)-6,7-dimethoxy-9,10-dihydrophenanthrene-3-carboxamide], the IC50 is less than 0.1 µM.

For the compound `COc1cc2c(cc1OC)-c1cc(C(=O)N[C@@H](CO)Cc3c[nH]c4ccccc34)c(-c3ccco3)cc1CC2` [Example 24, (R)-2-(furan-2-yl)-N-(1-hydroxy-3-(1H-indol-3-yl)propan-2-yl)-6,7-dimethoxy-9,10-dihydrophenanthrene-3-carboxamide], the IC50 was less than 0.1 µM.
